Reference: patent publication US20190031717A1, “MULTI-FUNCTIONAL FUSION POLYPEPTIDE, PREPARATION METHOD THEREOF, AND APPLICATION OF SAME” (NANJING ANJI BIOLOGICAL TECHNOLOGY CO., LTD, priority 2016, published 2019)

What was measured:
Test in all cases: MTT assay, tumor cells
Type in all cases: cell-based, human
Design in all cases: concentration or dose not given beside the values
Conditions in all cases: 48 hours, mean ± SD
Bladder Cancer = system: Bladder Cancer
Experimental: (§1) A variety of human tumor cells were cultured in a 37° C., 5% (volume fraction) CO2 incubator to a density of 90% or more, collected by trypsinization, resuspended in a culture medium and counted under a microscope, and the cells were harvested. The concentration was adjusted to 2.0×10^4 cells/mL, the cell suspension was inoculated into a 96-well plate at 100 μL per well and cultured overnight at 37° C. in a 5% (volume fraction) CO2 incubator. After the cells were completely adhered, the polypeptides of the present invention were added as drug-administered groups, and a culture solution containing no drug was used as a blank control group, and the culture solution was diluted to each predetermined concentration. Each dilution was separately added to a 96-well plate at 100 μL per well and incubated for 48 hours at 37° C. in a 5% (volume fraction) CO2 incubator. 20 μL of 5 mg/mL MTT was added to each well of a 96-well plate and incubation was continued for 4 h. The medium was aspirated and dissolved in 100 μL of DMSO per well. The absorbance was measured with a microplate reader at a detection wavelength of 570 nm and a reference wavelength of 630 nm, and the growth inhibition rate was calculated as follows: tumor growth inhibition rate (%)=(1−absorbance value of the administered group/unadministered group absorbance value)×100%, and the experiment was repeated 3 times independently. The results obtained from the test were expressed as mean±standard deviation, and the tumor growth inhibition rate of the unadministered group was 0. The results in Table 7 indicate that the polypeptides of the present invention have a significant inhibitory effect on the growth of various tumors (FIG. 6).

Brain tumor = system: Brain tumor
Experimental: as §1

Breast cancer = system: Breast cancer
Experimental: as §1

Cervical cancer = system: Cervical cancer
Experimental: as §1

Colorectal cancer = system: Colorectal cancer
Experimental: as §1

Esophageal cancer = system: Esophageal cancer
Experimental: as §1

Gastric cancer = system: Gastric cancer
Experimental: as §1

Head and neck cancer = system: Head and neck cancer
Experimental: as §1

Hemangioma = system: Hemangioma
Experimental: as §1

Kidney cancer = system: Kidney cancer
Experimental: as §1

Liver cancer = system: Liver cancer
Experimental: as §1

Melanoma = system: Melanoma
Experimental: as §1

Ovarian cancer = system: Ovarian cancer
Experimental: as §1

Pancreatic cancer = system: Pancreatic cancer
Experimental: as §1

Prostate cancer = system: Prostate cancer
Experimental: as §1

Thyroid cancer = system: Thyroid cancer
Experimental: as §1

Uterine cancer = system: Uterine cancer
Experimental: as §1

sarcoma = system: sarcoma
Experimental: as §1

Substance | tumor growth inhibition rate, MTT Assay (Bladder Cancer) | tumor growth inhibition rate, MTT Assay (Brain tumor) | tumor growth inhibition rate, MTT Assay (Breast cancer) | tumor growth inhibition rate, MTT Assay (Cervical cancer) | tumor growth inhibition rate, MTT Assay (Colorectal cancer) | tumor growth inhibition rate, MTT Assay (Esophageal cancer) | tumor growth inhibition rate, MTT Assay (Gastric cancer) | tumor growth inhibition rate, MTT Assay (Head and neck cancer) | tumor growth inhibition rate, MTT Assay (Hemangioma) | tumor growth inhibition rate, MTT Assay (Kidney cancer) | tumor growth inhibition rate, MTT Assay (Liver cancer) | tumor growth inhibition rate, MTT Assay (Melanoma) | tumor growth inhibition rate, MTT Assay (Ovarian cancer) | tumor growth inhibition rate, MTT Assay (Pancreatic cancer) | tumor growth inhibition rate, MTT Assay (Prostate cancer) | tumor growth inhibition rate, MTT Assay (Thyroid cancer) | tumor growth inhibition rate, MTT Assay (Uterine cancer) | tumor growth inhibition rate, MTT Assay (sarcoma)
Arg-Gly-Asp-Gly-Gly-Gly-Gly-Pro-(D-Pyr)-(D-Cys)-Bip-Arg-Gly-Glu-Gly-Gly-Gly-Gly-Ile-Val-Arg-Arg-Ala-Asp-Arg-Ala-Ala-Val-Pro [Polypeptide III] | 58.81 ± 12.90% | 77.52 ± 17.00% | 90.11 ± 22.76% | 68.52 ± 26.72% | 96.60 ± 21.18% | 74.58 ± 16.36% | 73.58 ± 20.14% | 55.05 ± 12.07% | 85.21 ± 25.36% | 67.94 ± 18.90% | 82.66 ± 18.13% | 64.46 ± 14.14% | 75.87 ± 22.58% | 66.99 ± 22.30% | 73.54 ± 24.09% | 70.99 ± 15.57% | 70.93 ± 23.38% | 74.75 ± 16.39%
Ile-Val-Arg-Arg-Ala-Asp-Arg-Ala-Ala-Val-Pro-Gly-Gly-Gly-Gly-Pro-(D-Pyr)-(D-Cys)-Bip-Arg-Gly-Glu-Gly-Gly-Gly-Gly-Arg-Gly-Asp [Polypeptide II] | 50.68 ± 12.04% | 66.81 ± 15.87% | 89.43 ± 21.24% | 62.34 ± 24.94% | 83.25 ± 19.77% | 64.28 ± 15.27% | 63.41 ± 18.79% | 47.44 ± 11.27% | 84.45 ± 23.67% | 58.56 ± 17.64% | 71.24 ± 16.92% | 55.55 ± 13.19% | 88.74 ± 21.07% | 71.93 ± 20.82% | 78.96 ± 22.49% | 61.18 ± 14.53% | 64.54 ± 21.82% | 64.42 ± 15.30%
Arg-Gly-Asp-Gly-Gly-Gly-Gly-Ile-Val-Arg-Arg-Ala-Asp-Arg-Ala-Ala-Val-Pro-Gly-Gly-Gly-Gly-Pro-(D-Pyr)-(D-Cys)-Bip-Arg-Gly-Glu [Polypeptide IV] | 52.23 ± 13.97% | 68.85 ± 18.42% | 92.16 ± 24.65% | 64.58 ± 28.95% | 85.80 ± 22.95% | 66.24 ± 17.72% | 65.35 ± 21.81% | 48.89 ± 13.08% | 87.49 ± 27.47% | 60.35 ± 20.48% | 73.42 ± 19.64% | 57.25 ± 15.31% | 91.45 ± 24.46% | 74.13 ± 24.16% | 81.37 ± 26.10% | 63.05 ± 16.87% | 78.49 ± 25.33% | 66.39 ± 17.76%
Pro-(D-Pyr)-(D-Cys)-Bip-Arg-Gly-Glu-Gly-Gly-Gly-Gly-Ile-Val-Arg-Arg-Ala-Asp-Arg-Ala-Ala-Val-Pro-Gly-Gly-Gly-Gly-Arg-Gly-Asp [Polypeptide I] | 38.69 ± 10.75% | 51.00 ± 14.17% | 68.27 ± 18.96% | 56.16 ± 22.27% | 63.55 ± 17.65% | 49.07 ± 13.63% | 48.41 ± 16.78% | 36.22 ± 10.06% | 76.08 ± 21.13% | 44.70 ± 15.75% | 54.38 ± 15.11% | 42.41 ± 11.78% | 67.74 ± 18.82% | 54.91 ± 18.59% | 60.28 ± 20.08% | 46.70 ± 12.97% | 58.14 ± 19.48% | 49.18 ± 13.66%
Pro-(D-Pyr)-(D-Cys)-Bip-Arg-Gly-Glu-Gly-Gly-Gly-Gly-Arg-Gly-Asp-Gly-Gly-Gly-Gly-Ile-Val-Arg-Arg-Ala-Asp-Arg-Ala-Ala-Val-Pro [Polypeptide VI] | 46.43 ± 10.53% | 61.20 ± 13.88% | 81.92 ± 18.58% | 67.39 ± 21.82% | 76.26 ± 17.30% | 58.88 ± 13.36% | 58.09 ± 16.44% | 43.46 ± 9.86% | 91.30 ± 20.71% | 53.64 ± 15.44% | 65.26 ± 14.80% | 50.89 ± 11.54% | 81.29 ± 18.44% | 65.89 ± 18.21% | 72.33 ± 19.68% | 56.04 ± 12.71% | 69.77 ± 19.09% | 59.01 ± 13.39%
Ile-Val-Arg-Arg-Ala-Asp-Arg-Ala-Ala-Val-Pro-Gly-Gly-Gly-Gly-Arg-Gly-Asp-Gly-Gly-Gly-Gly-Pro-(D-Pyr)-(D-Cys)-Bip-Arg-Gly-Glu [Polypeptide V] | 44.49 ± 11.93% | 58.65 ± 15.73% | 78.51 ± 21.05% | 64.58 ± 24.72% | 73.08 ± 19.60% | 56.43 ± 15.13% | 55.67 ± 18.63% | 41.65 ± 11.17% | 87.49 ± 23.46% | 51.41 ± 17.48% | 62.54 ± 16.77% | 48.77 ± 13.08% | 77.90 ± 20.89% | 63.15 ± 20.63% | 69.32 ± 22.29% | 53.71 ± 14.40% | 66.86 ± 21.63% | 56.55 ± 15.16%
